{
  "source": "patent US20200071316A1",
  "about": "“ACTIVATORS OF THE RETINOIC ACID INDUCIBLE GENE \"RIG-I\" PATHWAY AND METHODS OF USE THEREOF” (Kineta Immuno-Oncology LLC, priority 2018, published 2020)",
  "key": {"[1]": {"system": "THP1-Lucia ISG IRF3 −/− cells", "experiment": "IRF3-deficient THP1-Lucia ISG IRF3 −/− reporter assay (counter-screen)", "format": "cell-based", "conditions": "Homo sapiens, 10 μM compound, 18 h after stimulation, read-out: THP1 ISG IRF3 −/−: fold increase of luciferase activity over background", "procedure,_shortened": "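PMA-differentiated (100 ng/ml) reporter cells carrying ISRE/ISG54 minimal promoter-driven secreted luciferase were stimulated with compounds at 5–20 μM (mostly 10 μM). Luciferase measured 18 h later and expressed as fold increase over untreated background, binned from \"−\" (<2.4-fold) to \"+++++\" (≥40-fold).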"}, "[2]": {"system": "RIG-I deficient CT26 RIG-1−/− cells", "experiment": "CXCL10 secretion in RIG-I deficient CT26 RIG-1−/− cells (ELISA)", "format": "cell-based, murine", "conditions": "10 μM compound, 24 h", "procedure,_shortened": "(§1)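 Murine CT26 colon carcinoma cells, and CRISPR-generated RIG-I knockout CT26 cells, were seeded at 1×10^4 cells/well and grown 24 h at 37 °C, 5% CO2, then treated with compounds at 5 to 20 μM. CXCL10 in supernatants was measured by ELISA 24 h after stimulation.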"}, "[3]": {"system": "CXCL10 secretion by CT26 cells", "experiment": "RIG-I dependent CXCL10 secretion by CT26 colon carcinoma cells (ELISA)", "format": "cell-based, murine", "conditions": "10 μM compound, 24 h", "procedure,_shortened": "as §1"}, "[4]": {"system": "IRF3 signaling pathway (IRF-inducible ISG54 promotor) in THP1-Lucia ISG cells", "experiment": "THP1-Lucia ISG reporter assay: induction of IRF3-dependent luciferase activity", "format": "cell-based", "conditions": "Homo sapiens, 10 μM compound, PMA-differentiated cells, 18 h after stimulation, read-out: THP1 ISG: fold increase of IRF3-dependent luciferase activity over background", "procedure,_shortened": "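PMA-differentiated (100 ng/ml) reporter cells, parental and IRF3−/−, stimulated with compounds at 5–20 μM (mostly 10 μM). Secreted luciferase measured 18 h later. Scored as fold increase over untreated background in bands from \"−\" (<2.4-fold) to \"+++++\" (≥40-fold).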"}, "[5]": {"system": "murine CT26 colon carcinoma cells", "experiment": "Compound-induced immunogenic cell death: apoptosis (Annexin V+) by flow cytometry", "format": "cell-based", "conditions": "18 h after treatment, dose titration, FIG. 1A", "source_text": "(§2) To determine if the RIG-I agonist compounds induce immunogenic cell death in cancer cells, induction of apoptosis and the translocation or of calreticulin (CRT) to the cell surface in murine CT26 colon carcinoma cells were evaluation. The translocation of CRT occurs as part of a specific RIG-I dependent danger-signaling system, and the presence of CRT on the cell membrane promotes tumor antigen uptake by the dendritic cells and leads to the induction of am antigen-specific T cell response\n(§3) The induction of apoptosis and the CRT translocation was measured by flow cytometry. […] Cells were harvested 18 h after treatment and then prepared for flow cytometry using an Annexin V staining kit (Biolegend) for quantification of apoptosis, an anti-CRT antibody (Abgent) for calreticulin translocation, and the Live/Dead-Violet staining kit (Thermofisher) for cell viability. Induction of apoptosis and translocation of calreticulin (CRT) to cell surface by live cells was determined by tri-color flow cytometry using FITC-labeled Annexin V, Live/Dead-Violet (LDV), and APC-anti-CRT. Apoptotic cells were defined as Annexin V^+ and calreticulin translocation to cell surface was quantified by mean fluorescent intensity (MFI) of calreticulin^+ live cells (CRT^+ LDV^−). […]"}, "[6]": {"system": "murine CT26 colon carcinoma cells", "experiment": "Compound-induced immunogenic cell death: calreticulin translocation to cell surface (MFI of CRT+ LDV− cells)", "format": "cell-based", "conditions": "18 h after treatment, dose titration, FIG. 1B", "source_text": "as §2, §3"}},
  "data": [
    {"smiles": "O=C(Nc1c(Cl)cccc1Cl)c1ccc2nc(NC(=O)c3cc4ccccc4cc3OCCCCN3CCOCC3)sc2c1", "note": "[Example 19, N-(2,6-dichlorophenyl)-2-{3-[4-(morpholin-4-yl)butoxy]naphthalene-2-amido}-1,3-benzothiazole-6-carboxamide]", "values": [
      {"measurement": "fold induction at 10 µM", "setting": "[1]", "result": "< 2.4"},
      {"measurement": "CXCL10 secretion by CT26 RIG-I −/− cells", "setting": "[2]", "result": "− (“−” indicates less than 100 pg/mL)"},
      {"measurement": "CXCL10 secretion by CT26 cells", "setting": "[3]", "result": "++++ (“++++” indicates 800 to 1599 pg/mL)"},
      {"measurement": "fold induction at 10 µM", "setting": "[4]", "result": "5 to 9.9"},
      {"measurement": "induction of immunogenic cell death: apoptosis (Annexin V+)", "setting": "[5]", "result": "induction of immunogenic cell death"},
      {"measurement": "induction of immunogenic cell death: calreticulin translocation to cell surface", "setting": "[6]", "result": "induction of immunogenic cell death"}
    ]}
  ]
}
